In patent US20050182020A1, “Ceramide de novo synthesis-based therapeutic and prophylactic methods, and related articles of manufacture” (priority 2003, published 2005):

How the values were obtained:
HMG-CoA synthase mRNA = experiment: Northern blot of HMG-CoA synthase mRNA in CHO cells; type: cell-based, Chinese hamster; conditions: myriocin 1 μM, 16 h
Protocol: CHO cells were incubated for 8 h with control medium (1% BSA) or myriocin (1 μM). 30 μg of total RNA were loaded per lane, electrophoresed on a 1.2% agarose/formaldehyde gel and transferred to a nylon membrane. The membrane was hybridized with ^32P-labeled probes for HMG-CoA synthase and glyceraldehyde-3-phosphate dehydrogenase (GAPDH) as outlined under “Experimental Details.” Lane 1: Control; lane 2: Myriocin (1 μM). The level of HMG-CoA synthase mRNA relative to control values was calculated after quantitative phosphorimager analysis and correction of loading differences determined by the glyceraldehyde-3-phosphate dehydrogenase signal.
Northern blots: CHO cells were plated on day 1 at 80% confluency and treated with the respective conditions for 8 h. Total RNA was isolated by Trizol reagent (Invitrogen, Grand Island, N.Y.) as described by the manufacturer. RNA concentration was calculated from optical density at 260 nm. 30 μg of total RNA were separated by 1.2% denaturing agarose/formaldehyde electrophoresis and transferred by capillary transfer to Duralon UV-membranes (Stratagene, La Jolla, Calif.). The cDNA probe for northern hybridization of HMG-CoA synthase was obtained by RT-PCR from human THP-1 macrophages mRNA using previously described primers (4). […]

[1] = test system: SRE-mediated gene transcription; experiment: SRE-promoter luciferase reporter gene assay in stably transfected CHO cells; type: cell-based, Chinese hamster; conditions: for SRE-mediated gene transcription (luciferase RLU/protein): myriocin 1 μM, cycloserine 500 mM, fumonisin B1 10 μM, PPMP 20 μM, NB-DNJ 40 μM, cholesterol/25-OH cholesterol 10/1 μg/ml, vs 1% BSA
Protocol: FIG. 3. Inhibition of ceramide synthesis and SRE-mediated gene transcription. (A) Decreased ceramide synthesis correlates with decreased levels of SRE-mediated gene transcription and mSREBP. […] After cell lysis, luciferase activity was analyzed, and expressed as a ratio of protein content. Data represent the average (±S.D.) of at least 4 different experiments, each performed in triplicate. […] CHO cells stably transfected with an SRE-promoter construct linked to the luciferase reporter gene were incubated for 8 h in the presence of control conditions (1% BSA) or increasing levels of myriocin (0.25-1 μM). After cell lysis, luciferase activity was analyzed, expressed as a ratio of protein content. Data represent the average (±S.D.) of at least 3 different experiments, each performed in triplicate.
FIG. 4. Increased ceramide synthesis and SRE-mediated gene transcription. (A) Increased ceramide de novo synthesis correlates with increased SRE-mediated gene transcription. On day 1, CHO cells stably transfected with an SRE-promoter construct linked to the luciferase reporter gene were plated at 80% confluency. […] Cells were harvested, lysed and analyzed for luciferase activity (measured in relative light units, RLU) and protein content. Data are expressed as percentage of control and represent the average (±S.D.) of three different experiments, each performed in triplicate. Inset: Western blot analysis: On day 1, CHO cells were plated in regular growth medium. On day 2, cells were incubated for 8 h with control medium (1% BSA) or DMS (5 μM). Whole cell extracts (30 μg protein) were loaded on a 4-14% continuous gradient SDS-PAGE gel. P and M denote the precursor (125 kd) and mature (68 kd) form of SREBP-1 in a representative experiment. (B) DMS increases ceramide de novo synthesis. CHO cells were treated for 3.5 h either with control conditions (1% BSA) or DMS (2.5-5 μM). […] Data are expressed as dpm/protein and represent a typical experiment.
(§1) FIG. 5. LY-B cells fail to recover SRE-mediated gene transcription in cholesterol depletion but recover SRE-mediated gene transcription in the presence of DMS. […] Both cell lines have been transfected to stably express an SRE-promoter construct linked to the luciferase reporter gene. On day 2, cells were incubated for 16 h with 1% BSA (control) or in the presence of cholesterol (10 μg/ml) and 25-OH cholesterol (1 μg/ml) to decrease SRE-mediated gene transcription. Then, incubation medium was switched to 1% BSA or DMS (5 μM) for 6 h. After cell lysis, luciferase activity was analyzed, expressed as a ratio of protein content. Data represent the average (±S.D.) of at least 4 different experiments, each performed in triplicate.
Cell culture and stable transfections: Cells were grown in F12-nutrient mixture medium containing 10% fetal bovine serum (FBS), 1% glutamine (v/v), 1% penicillin/streptomycin (v/v), and 10% fetal bovine serum (v/v) at 37° C. in humidified CO2 (5%). To obtain stable transfectants, cells were plated in 12-well plates at 50% confluency and transfected for 5 h in the presence of serum-free Dulbecco's modified Eagle's medium (DMEM) with pSyn SRE (1 μg/well) and pWLNeo (0.25 μg/well) using Lipofectamin (1.5 μl/well). Cells were then incubated for 2 days in growth medium. On day three, neomycin-containing medium (400 μg/ml) was added. Selection for neomycin resistant colonies was continued for three weeks. Pooled clones were analyzed for luciferase expression. Experiments were performed with pooled clones as well as with cells derived from a single clone. Cells were grown in the presence of 400 μg/ml neomycin. For experimental use, cells were plated in the absence of neomycin at least 24 h ahead in regular growth medium.
Enzyme assays: Cells to be analyzed for luciferase activity were lyzed in lysis buffer A containing 0.1% Triton X-100, 50 mM Hepes, 10 mM MgSO4, pH 7.7. Cells were scraped, collected, vortexed and briefly centrifuged to pellet cell debris. […]

[2] = test system: cellular sphingomyelin levels; experiment: Cellular sphingomyelin levels (TLC, phosphorus); type: cell-based; conditions: within 24 h; data not shown
From the text: An aliquot was used for luciferase and protein determination. […] Lipids were then dried under N2. […] Absolute cpm values range between 400 and 800 cpm. […] In brief, lipids were extracted as above. Lipid extracts were run on TLC.
What is the role of cellular sphingomyelin levels on SRE-mediated gene transcription? […] LY-B cells have decreased sphingomyelin levels. Yet, SRE-mediated gene transcription is decreased in LY-B cells as well as in myriocin treated cells.

NPA fibroblasts = experiment: SRE-promoter reporter (adenoviral transfection) in NPA fibroblasts; type: cell-based; conditions: addition of cholesterol; reversible on switch to BSA
Protocol: FIG. 20. SRE-mediated gene transcription is increased in NPA fibroblasts. The hypothesis was evaluated that increased ceramide de novo synthesis affects SREBP and SRE-mediated gene transcription in Niemann Pick Type A cells. Cells were transfected with an SRE-promoter construct (using adenoviral transfection as above in HSN cells). […] Addition of cholesterol decreases SRE-mediated gene transcription and this process is also reversible.

[3] = test system: HSN1 lymphoblasts (HSN 4561); experiment: SRE-promoter reporter (adenovirus transfection) in HSN1 lymphoblasts; type: cell-based, human; conditions: 7 h
Protocol: (§2) FIG. 10. Increased SRE-mediated gene transcription in HSN1 cells (HSN 4561). Cells were transfected with an SRE-element containing promoter-reporter gene. This construct is identical to the promoter-reporter gene used in all previous studies. In order to achieve transfection in lymphoblasts, this promoter construct was subcloned into an adenovirus vector. Cells (control lymphoblasts and HSN1 lymphoblasts) were transfected for 3 h with this adenovirus vector and left in growth medium overnight. Medium was then switched to experimental medium containing 1% fatty acid free BSA (control conditions) or cholesterol/25-OH cholesterol (10 ug/ml/1 ug/ml) or oleic acid. After 7 h the luciferase activity which reflects binding of SREBP to the SRE-promoter element was measured. Because adenovirus mediated transfections are transient transfections the necessity for a transfection control arises. The adenovirus vector contains a β-gal control gene that is not regulated by experimental conditions and serves as a transfection control (standard practice).

[4] = test system: SRE-mediated gene transcription; experiment: SRE-promoter luciferase reporter gene assay in LY-B cells (CHO cells mutated in LCB1 subunit of serine-palmitoyl transferase); type: cell-based, Chinese hamster; conditions: cholesterol 10 μg/ml and 25-OH cholesterol 1 μg/ml, 16 h
Protocol: as §1
Enzyme assays: Cells to be analyzed for luciferase activity were lyzed in lysis buffer A containing 0.1% Triton X-100, 50 mM Hepes, 10 mM MgSO4, pH 7.7. Cells were scraped, collected, vortexed and briefly centrifuged to pellet cell debris. An aliquot was used to measure luciferase activities in a luminometer (Berthold LB 9501, Wallac Inc., Gaithersburg, Md.) with a luciferin reagent from Promega (Madison, Wis.). Luciferase activity in relative light units (RLU) was divided by protein content (mg/ml) for each extract. […]

[5] = test system: Niemann Pick Disease Type A fibroblasts; experiment: Ceramide de novo synthesis (3H-serine) in NPA fibroblasts; type: cell-based; conditions: overnight incubation with agent, vs 1% BSA
Protocol: FIG. 19. Ceramide synthesis is increased in NPA fibroblasts. Fibroblasts from different control individuals and from two different cell lines derived from Niemann Pick Disease Type A were incubated for 4 h in the presence of ^3H-serine to measure de novo ceramide synthesis after having been incubated overnight in either control medium (1% BSA) or in the presence of cholesterol or C8-Ceramide. Lipid extraction and separation were carried out.

HSN1 cells (4561) = experiment: Cholesterol / cholesterylester synthesis from 3H-mevalonate in HSN1 cells; type: cell-based, human
Protocol: (§3) FIG. 12. Increased free cholesterol synthesis in HSN cells. In order to investigate whether increased SRE-mediated gene transcription also results in increased cholesterol synthesis cells were incubated with radioactive mevalonate, a precursor which represents a committed step in cholesterol synthesis (see FIG. 11). Control and HSN1 cells were incubated for 7 h and 18 h in the presence of trace amounts of ^3H-mevalonate. Lipids were extracted and separated by thin […] chromatography (TLC). Radioactive counts in the cholesterol fraction were analyzed by liquid scintillation counting.
FIG. 14. Oleic acid increases HSN 4561 synthesis of high levels of free cholesterol but not cholesteryl ester. Cells were incubated for 4 h with ^3H-mevalonate and grown in the presence or absence of 0.3 mM oleic acid.
(§4) FIG. 16. Incubation with mevastatin decreases free cholesterol synthesis in HSN cells as well as in controls. Cells were treated for 16 h in the presence of ^3H-mevalonate to assess cholesterol de novo synthesis and several inhibitors of either cholesterol or ceramide synthesis (Mevastatin=Statin), C6 ceramide (previously shown by us to decreased SREBP levels and SRE-mediated gene transcription), cycloserine (inhibitor of serine-palmiltoyl transferase), cholesterol (classical inhibitor of de novo synthesis by negative feedback).

[6] = test system: control lymphoblasts (HSN 4513); experiment: SRE-promoter reporter (adenovirus transfection) in control lymphoblasts; type: cell-based, human; conditions: oleic acid, 7 h
Protocol: as §2

control cells (4513) = experiment: Cholesterol synthesis from 3H-mevalonate in control lymphoblasts; type: cell-based, human; conditions: 16 h
Protocol: as §3, §4

[7] = rats fed toxic levels, 20 week study (ref. 8); cited from earlier work
[8] = several animal studies; cited from earlier work
SREBP = experiment: Fluorescently labeled SREBP in cell culture after addition of DAG; type: cell-based; conditions: preliminary data in cell culture
Protocol: Data: Propanolol ([…]) inhibits SRE-mediated gene transcription to 40% (+3%) within 30 min. Resvaratrol ([…]) inhibits SRE-mediated gene transcription to 7% (±16%) within 4 h.
Preliminary data: Inhibition of PAP by propanolol or inhibition of PKD by resvaratrol both decrease SRE-mediated gene transcription. Addition of a DAG analogue that is exogenously added and thus distributes to membranes other than the Golgi results in reorientation of fluorescently labeled mature SREBP.

CCCCCCC(=O)CCCCCC/C=C/C[C@@H](O)[C@H](O)[C@@](N)(CO)C(=O)O [myriocin]
HMG-CoA synthase mRNA levels relative to control (HMG-CoA synthase mRNA): half
SRE-mediated gene transcription (luciferase RLU/protein) ([1]; 8 h): significantly reduced
expression of another control β-gal reporter gene ([1]; data not shown): did not decrease
SRE-mediated gene transcription, dose dependence ([1]; myriocin 0.25-1 μM, 8 h): dose-dependently decreases
cellular sphingomyelin levels [2]: does not change

CC(C)CCC[C@@H](C)[C@H]1CC[C@H]2[C@@H]3CC=C4C[C@@H](O)CC[C@]4(C)[C@H]3CC[C@]12C [cholesterol]
SRE-mediated gene transcription (NPA fibroblasts): decreases
SRE-mediated gene transcription (luciferase/β-gal) in HSN 1 (4561) ([3]; cholesterol/25-OH cholesterol 10/1 ug/ml): very efficient in decreasing
decrease of SRE-mediated gene transcription in LY-B cells compared to control cells [4]: significantly stronger
ceramide de novo synthesis (3H-serine, 4 h) [5]: does not significantly decrease
sensitivity of cholesterol de novo synthesis in HSN1 cells (4561) relative to control cells (HSN1 cells (4561); 16 h, 3H-mevalonate): more sensitive

CCCCCCCC/C=C\CCCCCCCC(=O)O [Oleic acid]
SRE-mediated gene transcription (luciferase/β-gal) in HSN 1 (4561) ([3]; oleic acid): does not decrease
synthesis of cholesterol from 3H-mevalonate (HSN1 cells (4561); HSN 4561, 0.3 mM oleic acid, 4 h): stimulates
SRE-mediated gene transcription (luciferase/β-gal) in controls [6]: does not decrease

CC[C@H](C)C(=O)O[C@H]1CCC=C2C=C[C@H](C)[C@H](CC[C@@H]3C[C@@H](O)CC(=O)O3)[C@H]21 [mevastatin]
free cholesterol synthesis in controls (control cells (4513)): decreases
free cholesterol synthesis in HSN cells (HSN1 cells (4561); 16 h, 3H-mevalonate): decreases

CCCC[C@@H](C)[C@@H](OC(=O)C[C@@H](CC(=O)O)C(=O)O)[C@H](C[C@@H](C)C[C@H](O)CCCC[C@@H](O)C[C@H](O)[C@H](C)N)OC(=O)C[C@@H](CC(=O)O)C(=O)O [fumonisin B1]
plasma cholesterol levels [7]: significantly decreased
SRE-mediated gene transcription (luciferase RLU/protein) ([1]; 8 h): significantly reduced
hepatotoxicity [8]: hepatotoxicity

diacylglycerol [DAG]
effect on fluorescently labeled SREBP (SREBP): attracts fluorescently labeled SREBP
